Results as given in patent US20240287124A1, “PRODRUGS OF 4'-SUBSTITUTED NUCLEOSIDE REVERSE TRANSCRIPTASE INHIBITORS” (Merck Sharp & Dohme LLC, priority 2023, published 2024).
In brackets after ≈: the same amount, converted by molar mass. Like-named read-outs stand apart in the source and are kept apart here.

How the values were obtained:
[1] = Aqueous solubility in PBS, pH 7.4; format: physicochemical; conditions: pH 7.4, aqueous buffer, thermodynamic from solid, pH 7.4 phosphate buffered saline, 24 hours, amorphous or crystalline material, read-out: Aqu. Solubility
In short: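 Excess solid suspended at 0.5 mg/mL in PBS pH 7.4 and stirred 24 hours. Filtrate (0.45 μm) diluted 1:1 with ACN:H2O and quantified by UPLC against a standard curve; residual solid phase checked by XRPD and PLM.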

[2] = system: HIV-1 wild-type (R8) virus; experiment: Viral KINetics in Green cells (VIKING) assay, HIV-1 replication in MT4-GFP reporter cells; format: cell-based; conditions: Human immunodeficiency virus 1, 10% normal human serum, MT4-GFP cells, HIV-1 wild-type (R8); read-out: Viking (10% NHS), IC50
In short: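 Compounds in 3-fold, 10-point series (typical 4 μM-0.2 nM) in 10% normal human serum received MT4 GFP-reporter T cells pre-infected overnight with wild-type R8 virus (MOI ~0.01). Ratio of GFP-positive cells at 72 vs 48 h defined replication; IC50 from nonlinear 4-parameter dose-response fitting.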

[3] = Plasma stability in frozen human plasma; format: in vitro ADME; conditions: frozen human plasma at 37° C., 0-3 hr; read-out: T1/2 Human Plasma (converted)
Description: Plasma stability of the compounds was evaluated in frozen human plasma at 37° C. in a 10% CO2 environment. The stability of the analyte was assessed by determining the percentage of drug loss over the course of 0, 0.25, 0.5, 1, and 3 hr. In addition, the appearance of Compound A was determined for the same time course. Percent of drug loss as based on ratio with internal standard. Analyte concentrations were measured by LC/MS/MS. Linear regression was performed with log transformed percent of average TO values and linear time values. The elimination rate constant (ke) was calculated from the slope of this regression line and the half-life (T½) calculated based on the elimination rate constant.

Compound | solubility at 24 h ([1]; phosphate buffered saline) [µg/mL] | IC50 [2] [nM] | half-life [3] [h] | solubility at 24 h [1] [µg/mL]
C#C[C@]1(COC(=O)CCCC)O[C@@H](n2ccc3c(N)nc(Cl)nc32)C[C@@H]1OC(=O)CCCC [Example 7, (2R,3S,5R)-5-(4-amino-2-chloro-7H-pyrrolo[2,3-d]pyrimidin-7-yl)-2-ethynyl-2-((pentanoyloxy)methyl)tetrahydrofuran-3-yl pentanoate] | < 1 | 2.9 | 0.036 | 
C#C[C@]1(COC(=O)C(CC)CC)O[C@@H](n2ccc3c(N)nc(Cl)nc32)C[C@@H]1OC(=O)C(CC)CC [Example 44, (2R,3S,5R)-5-(4-amino-2-chloro-7H-pyrrolo[2,3-d]pyrimidin-7-yl)-2-(((2-ethylbutanoyl)oxy)methyl)-2-ethynyltetrahydrofuran-3-yl 2-ethylbutanoate] | < 1 | 351 | 2.2 | 
C#C[C@]1(CO)O[C@@H](n2ccc3c(N)nc(Cl)nc32)C[C@@H]1OC(=O)Oc1ccccc1 [Example 12, (2R,3S,5R)-5-(4-amino-2-chloro-7H-pyrrolo[2,3-d]pyrimidin-7-yl)-2-ethynyl-2-(hydroxymethyl)tetrahydrofuran-3-yl phenyl carbonate] | 2.9 (≈ 6.76 µM) | 2.9 | 0.41 | 
C#C[C@]1(COC(=O)c2ccccc2)O[C@@H](n2ccc3c(N)nc(Cl)nc32)C[C@@H]1O [Example 9, ((2R,3S,5R)-5-(4-amino-2-chloro-7H-pyrrolo[2,3-d]pyrimidin-7-yl)-2-ethynyl-3-hydroxytetrahydrofuran-2-yl)methyl benzoate] | 182 (≈ 441 µM) | 2.8 | 0.026 | 
C#C[C@]1(COC(=O)C(CC)CC)O[C@@H](n2ccc3c(N)nc(Cl)nc32)C[C@@H]1O [Example 40, ((2R,3S,5R)-5-(4-amino-2-chloro-7H-pyrrolo[2,3-d]pyrimidin-7-yl)-2-ethynyl-3-hydroxytetrahydrofuran-2-yl)methyl 2-ethylbutanoate] | 282 (≈ 693 µM) | 5.5 | 1.9 | 
C#C[C@]1(COC(=O)OC(C)C)O[C@@H](n2ccc3c(N)nc(Cl)nc32)C[C@@H]1O [Example 23, ((2R,3S,5R)-5-(4-amino-2-chloro-7H-pyrrolo[2,3-d]pyrimidin-7-yl)-2-ethynyl-3-hydroxytetrahydrofuran-2-yl)methyl isopropyl carbonate] | 351 (≈ 889 µM) | 2.2 | 0.028 | 
C#C[C@]1(CO)O[C@@H](n2ccc3c(N)nc(Cl)nc32)C[C@@H]1OC(=O)CCCC [Example 3, (2R,3S,5R)-5-(4-amino-2-chloro-7H-pyrrolo[2,3-d]pyrimidin-7-yl)-2-ethynyl-2-(hydroxymethyl)tetrahydrofuran-3-yl pentanoate] | 27 (≈ 68.7 µM) | 3.7 | 16.7 | 
C#C[C@]1(CO)O[C@@H](n2ccc3c(N)nc(Cl)nc32)C[C@@H]1OC(=O)C(C)C [Example 2, (2R,3S,5R)-5-(4-amino-2-chloro-7H-pyrrolo[2,3-d]pyrimidin-7-yl)-2-ethynyl-2-(hydroxymethyl)tetrahydrofuran-3-yl isobutyrate] | 136 (≈ 359 µM) | 41 | 48.4 | 
C#C[C@]1(CO[P@@](=O)(N[C@@H](C)C(=O)OC(C)C)Oc2ccccc2)O[C@@H](n2ccc3c(N)nc(Cl)nc32)C[C@@H]1O [Example 8, Isopropyl ((S)-(((2R,3S,5R)-5-(4-amino-2-chloro-7H-pyrrolo[2,3-d]pyrimidin-7-yl)-2-ethynyl-3-hydroxytetrahydrofuran-2-yl)methoxy)(phenoxy)phosphoryl)-L-alaninate] |  | 42 | 13.3 | 304 (≈ 526 µM)
C#C[C@]1(COC(=O)c2ccccc2)O[C@@H](n2ccc3c(N)nc(Cl)nc32)C[C@@H]1OC(=O)c1ccccc1 [Example 6, (2R,3S,5R)-5-(4-amino-2-chloro-7H-pyrrolo[2,3-d]pyrimidin-7-yl)-2-((benzoyloxy)methyl)-2-ethynyltetrahydrofuran-3-yl benzoate] | < 1 | 44 | 1.1 | 
C#C[C@]1(COCOC(=O)C(C)C)O[C@@H](n2ccc3c(N)nc(Cl)nc32)C[C@@H]1O [Example 54, (((2R,3S,5R)-5-(4-amino-2-chloro-7H-pyrrolo[2,3-d]pyrimidin-7-yl)-2-ethynyl-3-hydroxytetrahydrofuran-2-yl)methoxy)methyl isobutyrate] | 247 (≈ 604 µM) | 1.5 |  | 
C#C[C@]1(CO)O[C@@H](n2ccc3c(N)nc(Cl)nc32)C[C@@H]1OC(=O)OCCCc1ccccc1 [Example 152] | < 1 | 6 |  | 
C#C[C@]1(CO)O[C@@H](n2ccc3c(N)nc(Cl)nc32)C[C@@H]1OC(=O)CCCCC [Example 59, (2R,3S,5R)-5-(4-amino-2-chloro-7H-pyrrolo[2,3-d]pyrimidin-7-yl)-2-ethynyl-2-(hydroxymethyl)tetrahydrofuran-3-yl hexanoate] | 16 (≈ 39.3 µM) | 2.8 |  | 
C#C[C@]1(COC(=O)OCCc2ccccc2)O[C@@H](n2ccc3c(N)nc(Cl)nc32)C[C@@H]1O [Example 124] | 71 (≈ 155 µM) | 3.6 |  | 
C#C[C@]1(COC(=O)OCCC23CC4CC(CC(C4)C2)C3)O[C@@H](n2ccc3c(N)nc(Cl)nc32)C[C@@H]1O [Example 35, 2-(adamantan-1-yl)ethyl (((2R,3S,5R)-5-(4-amino-2-chloro-7H-pyrrolo[2,3-d]pyrimidin-7-yl)-2-ethynyl-3-hydroxytetrahydrofuran-2-yl)methyl) carbonate] | < 1 | 6.2 |  | 
C#C[C@]1(CO)O[C@@H](n2ccc3c(N)nc(Cl)nc32)C[C@@H]1OC(=O)Cc1ccc(F)cc1 [Example 31, (2R,3S,5R)-5-(4-amino-2-chloro-7H-pyrrolo[2,3-d]pyrimidin-7-yl)-2-ethynyl-2-(hydroxymethyl)tetrahydrofuran-3-yl 2-(4-fluorophenyl)acetate] | 11 (≈ 24.7 µM) | 4.6 |  | 
C#C[C@]1(COC(=O)OCC23CC4CC(CC(C4)C2)C3)O[C@@H](n2ccc3c(N)nc(Cl)nc32)C[C@@H]1O [Example 115] | < 1 | 5.7 |  | 
C#C[C@]1(COC(=O)OCCCCCCCC)O[C@@H](n2ccc3c(N)nc(Cl)nc32)C[C@@H]1O [Example 39, ((2R,3S,5R)-5-(4-amino-2-chloro-7H-pyrrolo[2,3-d]pyrimidin-7-yl)-2-ethynyl-3-hydroxytetrahydrofuran-2-yl)methyl octyl carbonate] | < 1 | 3 |  | 
C#C[C@]1(COC(=O)OCc2ccccc2)O[C@@H](n2ccc3c(N)nc(Cl)nc32)C[C@@H]1OC(=O)CCCCC [Example 210] | < 1 | 2.9 |  | 
C#C[C@]1(CO)O[C@@H](n2ccc3c(N)nc(Cl)nc32)C[C@@H]1OC(=O)OCCCCCCCCCC [Example 10, (2R,3S,5R)-5-(4-amino-2-chloro-7H-pyrrolo[2,3-d]pyrimidin-7-yl)-2-ethynyl-2-(hydroxymethyl)tetrahydrofuran-3-yl decyl carbonate] | < 1 | 9.9 |  | 
C#C[C@]1(COCOC(=O)OC(C)C)O[C@@H](n2ccc3c(N)nc(Cl)nc32)C[C@@H]1O [Example 133] | 341 (≈ 803 µM) | 2.7 |  | 
C#C[C@]1(COC(=O)CCCCC)O[C@@H](n2ccc3c(N)nc(Cl)nc32)C[C@@H]1OC(C)=O [Example 185] | 4.2 (≈ 9.36 µM) | 17 |  | 
C#C[C@]1(CO)O[C@@H](n2ccc3c(N)nc(Cl)nc32)C[C@@H]1OC(=O)OCC1CCCCC1 [Example 154] | < 1 | 3.5 |  | 
C#C[C@]1(CO)O[C@@H](n2ccc3c(N)nc(Cl)nc32)C[C@@H]1OC(=O)OCCCCCCCCC [Example 38, (2R,3S,5R)-5-(4-amino-2-chloro-7H-pyrrolo[2,3-d]pyrimidin-7-yl)-2-ethynyl-2-(hydroxymethyl)tetrahydrofuran-3-yl nonyl carbonate] | < 1 | 8 |  | 
C#C[C@]1(COC(=O)OCCCCC[C@@H]2SC[C@@H]3NC(=O)N[C@@H]32)O[C@@H](n2ccc3c(N)nc(Cl)nc32)C[C@@H]1OC(=O)OCCCCC[C@@H]1SC[C@@H]2NC(=O)N[C@@H]21 [Example 207] | 1.2 (≈ 1.46 µM) | 21 |  | 
C#C[C@]1(COC(=O)OCc2ccccc2)O[C@@H](n2ccc3c(N)nc(Cl)nc32)C[C@@H]1OC(=O)OCCCC [Example 212] | < 1 | 4.8 |  | 
C#C[C@]1(CO)O[C@@H](n2ccc3c(N)nc(Cl)nc32)C[C@@H]1OC(=O)OCCCCCC [Example 61, (2R,3S,5R)-5-(4-amino-2-chloro-7H-pyrrolo[2,3-d]pyrimidin-7-yl)-2-ethynyl-2-(hydroxymethyl)tetrahydrofuran-3-yl hexyl carbonate] | < 1 | 4.5 |  | 
